What was measured:
[1] = tested on: nitrosoamine-induced pancreatic cancer; assay: laser irradiation to the extirpated organ (excited fluorescent spectrum, N2-PLS measurement), tumor to tissue ratio; assay type: in vivo, Golden hamsters; conditions: i.v. 25 mg/kg bodyweight, organs extirpated at 24 hours after administration
Experimental: Golden hamsters (males, 5 per group, bodyweight approximately 150 g) were implanted subcutaneously tumor cells of the nitrosoamine-induced pancreatic cancer. After 14 to 21 days following implantation, animals were intravenously (i.v.) administered the test substance EG-Ga-DP-diGly (10 mg/ml) which had been diluted with phosphate buffer at 25 mg/kg bodyweight. At 24 hours after administration, the organs including the tumor were extirpated, irradiated with N2-pulsed laser (N2, 337 nm, 2 ns, 400 - 1000 nm), and measured of excited fluorescent spectrum. The wavelengths of 600 - 900 nm were studied using the peak wavelength of NADH at 470 nm as a reference. (N2-PLS measurement). […] (Tumor to tissue ratio).
Excited fluorescent spectra of the organs extirpated at 24 hours after administration were measured, and the peak wavelength at 600 - 900 nm was calculated by setting the peak wavelength at 470 nm as the reference 1. As fluorescence in Mn, Fe and Cu complexes is not sufficiently intense as to enable N2-PLS measurement, the extraction method was applied to these compounds. At 24 hours following administration, the organs were extracted with an organic solvent (such as chloroform-methanol) via acetone powder, and the obtained extract was measured of UV or HPLC to calculate the tumor to tissue ratio.

[2] = tested on: nitrosoamine-induced pancreatic cancer; assay: in vivo hemorrhagic necrosis effect; set-up: species or system hamsters; key to Hemorrhagic necrosis effect: four scales of G4, G3, G2 and G1; four scales of G4, G3, G2 and G1; four scales of G4, G3, G2 and G1; four scales of G4, G3, G2 and G1; conditions: for Hemorrhagic necrosis effect: intensity of hemorrhagic necrosis at 24 hours following i.v. administration, and pathological study; for photograph of a cancer mass (Fig. 1) / photograph of a cancer mass (Fig. 2): 24 hours after administration, Cn-Ga-DP-diAsp; for photograph of a cancer mass (Fig. 1): n = odd numbers; for photograph of a cancer mass (Fig. 2): n = even numbers
Experimental: Cancer bearing hamsters of Experiment 1 were i.v. administered the test substance C6-Ga-DP-diAsp (10) (10 mg/ml) which had been diluted with phosphate buffer at 25 mg/kg bodyweight and 12.5 mg/kg bodyweight respectively. The animals were exsanguinated and autopsied at 24 hours after administration, and observed.
The evaluation was based on the four scales of G4, G3, G2 and G1.

[3] = luminescence properties of porphyrin derivatives (Table 1); assay type: physicochemical
Text: There are two stages of destruction; Mechanism I under which the pigments are excited by light to assume the triple state which directly destroys the cancer cells, and Mechanism II under which the pigments in the triple state further excite oxygen to form the singlet state oxygen (activated oxygen) leading to cell necrosis. In the case of porphyrin derivatives, the Mechanism II is considered prevalent. By measuring the triple state life time (the fluorescence and phosphorescence life time) which indicates porphyrin's triple state, the length of phosphorescence life time is compared to reveal the intensity of photo-sensitivity. […] In other words, phosphorescence life time of metalloporphyrins coordinated with such metals as Zn and Ga is long while that of those coordinated with Mn, Fe, or Cu is very short.

| tumor/tissue cancer/ kidney [1] | tumor/tissue cancer/ liver [1] | tumor/tissue cancer/ lung [1] | tumor/tissue cancer/ serum [1] | Absorbance [3] | Fluorescence [3] | Phosphorescence life time ([3]; Filter paper) | Phosphorescence [3] | Phosphorescence life time ([3]; Solution) | SMILES | Hemorrhagic necrosis effect [2] | photograph of a cancer mass (Fig. 1) [2] | photograph of a cancer mass (Fig. 2) [2] |
| --- | --- | --- | --- | --- | --- | --- | --- | --- | --- | --- | --- | --- |
| 15.66 | 11.37 | 12.39 | 2.82 | – | – | – | – | – | CC(C)=CCCC(C)CCOC(C)C1=C(C)C2=Cc3c(C(C)OCCC(C)CCC=C(C)C)c(C)c4[n]3[Ga][n]3c(c(C)c(CCC(=O)NC(CC(=O)O)C(=O)O)c3=CC3=NC(=C4)C(C)=C3CCC(=O)NC(CC(=O)O)C(=O)O)=CC1=N2 (stereo not drawn) [(18) C10(Citro)-Ga-DP-diAsp, 2,4-bis(1-citronellyloxyethyl)-Ga-deuteroporphynyl diaspartic acid] | G2 | – | – |
| 6.58 | 4.07 | 3.89 | 0.89 | – | – | – | – | – | CCCCCOC(C)C1=C(C)C2=Cc3c(C(C)OCCCCC)c(C)c4[n]3[Ga][n]3c(c(C)c(CCC(=O)NC(CC(=O)O)C(=O)O)c3=CC3=NC(=C4)C(C)=C3CCC(=O)NC(CC(=O)O)C(=O)O)=CC1=N2 (stereo not drawn) [(9) C5-Ga-DP-diAsp, 2,4-bis(1-pentyloxyethyl)-Ga-deuteroporphynyl diaspartic acid] | G4 | hemorrhagic necrosis | – |
| 14.44 | 2.95 | 3.42 | 5.91 | – | – | – | – | – | CCCOC(C)C1=C(C)C2=Cc3c(C(C)OCCC)c(C)c4[n]3[Ga][n]3c(c(C)c(CCC(=O)NC(CC(=O)O)C(=O)O)c3=CC3=NC(=C4)C(C)=C3CCC(=O)NC(CC(=O)O)C(=O)O)=CC1=N2 (stereo not drawn) [(6) C3-Ga-DP-diAsp, 2,4-bis(1-propoxyethyl)-Ga-deuteroporphynyl diaspartic acid] | G2 | hemorrhagic necrosis | – |
| 3.03 | 2.63 | 2.33 | 1.54 | – | – | – | – | – | CC1=C(CCC(=O)NC(CC(=O)O)C(=O)O)C2=NC1=Cc1c(C)c(C(C)OC(C)C)c3[n]1[Ga][n]1c(c(C)c(CCC(=O)NC(CC(=O)O)C(=O)O)c1=C2)=CC1=NC(=C3)C(C)=C1C(C)OC(C)C (stereo not drawn) [(7) C3(iso)-Ga-DP-diAsp, 2,4-bis(1-isopropoxyethyl)-Ga-deuteroporphynyl diaspartic acid] | G2 | – | – |
| 8.54 | 4.38 | 7.00 | 1.35 | – | – | – | – | – | CCCCCCCCCCCCOC(C)C1=C(C)c2cc3[nH]c(cc4nc(cc5[nH]c(cc1n2)c(C)c5C(C)OCCCCCCCCCCCC)C(C)=C4CCC(=O)NC(CC(=O)O)C(=O)O)c(CCC(=O)NC(CC(=O)O)C(=O)O)c3C.[Ga] (stereo not drawn) [(22) C12-Ga-DP-diAsp, 2,4-bis (1-dodecyloxyethyl)-Ga-deuteroporphynyl diaspartic acid] | G2 | – | hemorrhagic necrosis |
| 3.79 | 3.79 | 2.89 | 0.72 | – | – | – | – | – | CC1=C(CCC(=O)NC(CC(=O)O)C(=O)O)C2=NC1=Cc1c(C)c(C(C)OCCc3ccccc3)c3[n]1[Ga][n]1c(c(C)c(CCC(=O)NC(CC(=O)O)C(=O)O)c1=C2)=CC1=NC(=C3)C(C)=C1C(C)OCCc1ccccc1 (stereo not drawn) [(14) C8(Phenethyl)-Ga-DP-diAsp, 2,4-bis(1-phenethyloxyethyl)-Ga-deuteroporphynyl diaspartic acid] | G1 | – | – |
| 1.25 | 0.71 | 1.25 | 1.16 | – | – | – | – | – | CCOC(C)C1=C(C)C2=Cc3c(C(C)OCC)c(C)c4[n]3[Ga][n]3c(c(C)c(CCC(=O)NC(CC(=O)O)C(=O)O)c3=CC3=NC(=C4)C(C)=C3CCC(=O)NC(CC(=O)O)C(=O)O)=CC1=N2 (stereo not drawn) [(5) C2-Ga-DP-diAsp, 2,4-bis(1-ethoxyethyl)-Ga-deuteroporphynyl diaspartic acid] | G1 | – | hemorrhagic necrosis |
| – | – | – | – | 570 nm | – | – | – | – | C=CC1=C(C)c2cc3[n-]c(cc4nc(cc5[n-]c(cc1n2)c(C)c5CCC(=O)OC)C(CCC(=O)OC)=C4C)c(C)c3C=C.[Co+2] [Co-PP-Me] | – | – | – |
| 2.27 | 1.19 | 0.78 | 2.50 | – | – | – | – | – | COC(C)C1=C(C)C2=Cc3c(C(C)OC)c(C)c4[n]3[Ga][n]3c(c(C)c(CCC(=O)NC(CC(=O)O)C(=O)O)c3=CC3=NC(=C4)C(C)=C3CCC(=O)NC(CC(=O)O)C(=O)O)=CC1=N2 (stereo not drawn) [(4) C1-Ga-DP-diAsp, 2,4-bis(1-methoxyethyl)-Ga-deuteroporphynyl diaspartic acid] | G1 | – | – |
| 11.49 | 9.09 | 11.11 | 3.50 | – | – | – | – | – | CC1=C(CCC(=O)NC(CC(=O)O)C(=O)O)C2=NC1=Cc1c(C)c(C(C)OCCC(C)CCCC(C)C)c3[n]1[Ga][n]1c(c(C)c(CCC(=O)NC(CC(=O)O)C(=O)O)c1=C2)=CC1=NC(=C3)C(C)=C1C(C)OCCC(C)CCCC(C)C (stereo not drawn) [(19) C10(H2Citro)-Ga-DP-diAsp, 2,4-bis(1-dihydrocitronellyloxyethyl)-Ga-deuteroporphynyl diaspartic acid] | G2 | – | – |
| 3.54 | 2.07 | 3.40 | 1.12 | – | – | – | – | – | CCCCCCCCCOC(C)C1=C(C)c2cc3[nH]c(cc4nc(cc5[nH]c(cc1n2)c(C)c5C(C)OCCCCCCCCC)C(C)=C4CCC(=O)NC(CC(=O)O)C(=O)O)c(CCC(=O)NC(CC(=O)O)C(=O)O)c3C.[Ga] (stereo not drawn) [(15) C9-Ga-DP-diAsp, 2,4-bis(1-nonyloxyethyl)-Ga-deuteroporphynyl diaspartic acid] | G2 | hemorrhagic necrosis | – |
| – | – | – | – | 633 nm | 635 nm | 1.8 ms | – | – | C=Cc1c(C)c2cc3[nH]c(cc4nc(cc5nc(cc1[nH]2)C(C)=C5CCC(=O)OC)C(CCC(=O)OC)=C4C)c(C)c3C=C [PP-Me] | – | – | – |
| 3.82 | 3.33 | 4.88 | 2.19 | – | – | – | – | – | CC(C)=CCC/C(C)=C/COC(C)C1=C(C)C2=Cc3c(C(C)OC/C=C(\C)CCC=C(C)C)c(C)c4[n]3[Ga][n]3c(c(C)c(CCC(=O)NC(CC(=O)O)C(=O)O)c3=CC3=NC(=C4)C(C)=C3CCC(=O)NC(CC(=O)O)C(=O)O)=CC1=N2 (stereo not drawn) [(17) C10(Gera)-Ga-DP-diAsp, 2,4-bis(1-geranyloxyethyl)-Ga-deuteroporphynyl diaspartic acid] | G2 | – | – |
| 1.32 | 2.30 | 1.50 | – | – | – | – | – | – | C=CC1=C(C)C2=Cc3c(C(C)OCCO)c(C)c4[n]3[Ga][n]3c(c(C)c(CCC(=O)NC(CC(=O)O)C(=O)O)c3=CC3=NC(=C4)C(C)=C3CCC(=O)NC(CC(=O)O)C(=O)O)=CC1=N2 (stereo not drawn) [(2) monoEG-Ga-DP-diAsp, 2-[1-(2-hydroxyethyloxy)ethyl]-4-ethenyl-Ga-deuteroporphynyl diaspartic acid] | G1 | – | – |
| – | – | – | – | 572 nm | – | 20 µs | 705 nm | 100 µs | C=CC1=C(C)c2cc3[n-]c(cc4nc(cc5[n-]c(cc1n2)c(C)c5CCC(=O)OC)C(CCC(=O)OC)=C4C)c(C)c3C=C.[Cu+2] [Cu-PP-Me] | – | – | – |
| – | – | – | – | 590 nm | 600 nm | – | – | – | C=CC1=C(C)c2cc3[n-]c(cc4nc(cc5[n-]c(cc1n2)c(C)c5CCC(=O)OC)C(CCC(=O)OC)=C4C)c(C)c3C=C.[Mg+2] [Mg-PP-Me] | – | – | – |

| SMILES | tumor/tissue cancer/ kidney [1] | tumor/tissue cancer/ liver [1] | tumor/tissue cancer/ lung [1] | tumor/tissue cancer/ serum [1] | Absorbance [3] | Fluorescence [3] | Phosphorescence life time ([3]; Filter paper) | Phosphorescence [3] | Phosphorescence life time ([3]; Solution) | Hemorrhagic necrosis effect [2] | photograph of a cancer mass (Fig. 1) [2] | photograph of a cancer mass (Fig. 2) [2] |
| --- | --- | --- | --- | --- | --- | --- | --- | --- | --- | --- | --- | --- |
| CCCCOC(C)C1=C(C)C2=Cc3c(C(C)OCCCC)c(C)c4[n]3[Ga][n]3c(c(C)c(CCC(=O)NC(CC(=O)O)C(=O)O)c3=CC3=NC(=C4)C(C)=C3CCC(=O)NC(CC(=O)O)C(=O)O)=CC1=N2 (stereo not drawn) [(8) C4-Ga-DP-diAsp, 2,4-bis(1-butoxyethyl)-Ga-deuteroporphynyl diaspartic acid] | 7.72 | 3.54 | 4.47 | 2.00 | – | – | – | – | – | G4 | hemorrhagic necrosis | hemorrhagic necrosis |

— EP0350948B1, “Porphyrin derivatives” (TOYOHAKKA KOGYO KABUSHIKI KAISHA, priority 1988, dated 1990)
